The numbers were not newly measured in US7304085B2, “Nitrogen-containing heteroaryl derivatives” (Genelabs Technologies, Inc., priority 2003, dated 2007), which cites them from elsewhere.

One series relates to HCV. The settings on record: treatment of HCV, long term efficacy.

For `NC(=O)c1ncn([C@@H]2O[C@H](CO)[C@@H](O)[C@H]2O)n1` [Ribavirin, 1-β-D-ribofuranosyl-1H-1,2,4-triazole-3-carboxamide], the “patients with significant hemolysis” value (currently recommended doses) is listed as 10-20%. For the same molecule, under “in vivo”, the teratogenicity / embryotoxicity entry is “teratogenic and embryotoxic”.
Take interferon: in the series on HCV, the response rate result was “about 25%”.
